Reference: patent US7273863B1, “Benzophenones as inhibitors of reverse transcriptase” (SmithKline Beecham Corporation, priority 1999, dated 2007)

How the values were obtained:
Assay in all cases: HeLa cell assay (HIV-LTR β-galactosidase reporter)
[1] = system: isogenic HIV-1 RT mutant virus V106A/Y181C; assay type: cell-based; settings: Human immunodeficiency virus 1, HeLa, read-out: IC50 (nM) Range
Experimental: (§1) The HeLa cell assay was performed according to a modification of Kimpton J. and Emerman M., Detection of replication-competent and pseudotyped human immunodeficiency virus with a sensitive cell line on the basis of activation of an integrated β-galactosidase gene, J. Virol. 66:2232-2239 (1992), in which HIV-1 infection is detected by the activation of an HIV-LTR driven β-galactosidase reporter that is integrated into the genome of a CD4^+ HeLa cell line. Quantitation of β-galactosidase is achieved by measuring the activation of a chemiluminescent substrate (Tropix). The concentration of each compound required to inhibit 50% (IC50) of the HIV-1 induced β-galactosidase signal, relative to untreated controls, was determined for each isogenic, recombinant virus.
(§2) HeLa-CD4-LTR-β-gal cells were obtained from the NIH AIDS Research and Reference Reagent Program. Cells were propagated in DMEM containing 10% fetal bovine serum, 0.2 mg/ml geneticin and 0.1 mg/ml hygromycin B. Cells were routinely split by trypsinization when confluency reached 80% (approximately every 2 to 3 days).
(§3) DNA encoding the HIV-1 reverse transcriptase was subcloned from a M13 phage into a general shuttle vector, pBCSK+, as a ˜1.65 kbp EcoRI/HindIII ended DNA fragment. The HIV DNA insert of the resulting plasmid, pRT2, was completely sequenced on both strands prior to use in site directed mutagenesis experiments. Specific amino acid replacements were made using Stratagene Quick Change reagents and mutagenic oligonucleotides from Oligos. Following mutagenesis, the entire mutant RT coding sequence was verified by sequencing both DNA strands.
(§4) Mutant HIV-1 strains were isolated by a modified Recombinant Virus Assay (Kellam P. and Larder B., Recombinant virus assay: a rapid, phenotypic assay for assessment of drug susceptibility of human immunodeficiency virus type 1 isolates, Antimicrobial Agents and Chemotherapy, 38:23-30, 1994). 1×10^7 Jurkat T-cells (maintained in RPMI containing 10% fetal bovine serum, split 1:5 every 5 to 6 days) were co-transfected with EcoRI/HindIII digested mutant RT plasmid and Bst EII-digested HIV-1HXB2ΔRT DNA in the presence of DMRIE-C transfection reagent (Gibco) according to supplier's recommended protocol. Each mutant RT coding sequence was crossed into the RT-deleted HIV-1 viral DNA backbone by in vivo homologous recombination. Transfected cell cultures were expanded and monitored until syncitia formation and CPE were extensive. Virus was harvested by clear spin of the culture supernatants and frozen at −80 C as primary stock. Recombinant progeny virus was sequenced in the RT region to confirm the mutant genotype. Virus stocks were further expanded by infection of Jurkat cells, harvested and stored as frozen aliquots. Stocks were titered in HeLa MAGI cells for assay.
(§5) The HIV-1HXB2 mutants were titered in the HeLa MAGI assay system to determine the relative light units (RLU) per ml, a measure of infectivity relevant for this assay system. Virus stocks were diluted in a 2-fold series into DMEM containing 10% fetal bovine serum plus 20 ug/ml DEAE-dextran and assayed as described in the Experimental Protocol section, below.
(§6) 96-well microtiter plate(s) (Costar #3598) were seeded with 3×10^3 HeLa-CD4-LTR-β-gal in 100 μl DMEM containing 10% fetal bovine serum. Plates were placed in a 37° C., 5% CO2 humidified incubator overnight. The following day, mutant virus stocks were thawed in a room temperature water bath and diluted into DMEM containing 10% fetal bovine serum and 20 μg/ml DEAE-dextran to achieve an input of 1500 to 2000 RLU/ml. All media was removed with an 8 channel manifold aspirator and 35 μl (50 to 70 total RLUs) of diluted virus was added to each well for virus adsorption. Plates were placed in a 37° C., 5% CO2 humidified incubator for 1.5 to 2 hours.
(§7) Compound titration plates were prepared at 1.35× final concentration during the virus adsorption period. […]

[2] = system: isogenic HIV-1 RT mutant virus V108I/Y181C; assay type: cell-based; settings: Human immunodeficiency virus 1, HeLa, read-out: IC50 (nM) Range
Experimental: as §1, §2, §3, §4, §5, §6, §7

[3] = system: isogenic HIV-1 RT mutant virus K103N/Y181C; assay type: cell-based; settings: Human immunodeficiency virus 1, HeLa, read-out: IC50 (nM) Range
Experimental: as §1, §2, §3, §4, §5, §6, §7

[4] = system: isogenic HIV-1 RT mutant virus V108I; assay type: cell-based; settings: Human immunodeficiency virus 1, HeLa, read-out: IC50 (nM) Range
Experimental: as §1, §2, §3, §4, §5, §6, §7

[5] = system: isogenic HIV-1 RT mutant virus K103N/G190A; assay type: cell-based; settings: Human immunodeficiency virus 1, HeLa, read-out: IC50 (nM) Range
Experimental: as §1, §2, §3, §4, §5, §6, §7

[6] = system: isogenic HIV-1 RT mutant virus K103N/V108I; assay type: cell-based; settings: Human immunodeficiency virus 1, HeLa, read-out: IC50 (nM) Range
Experimental: as §1, §2, §3, §4, §5, §6, §7

[7] = system: isogenic HIV-1 RT mutant virus K103N; assay type: cell-based; settings: Human immunodeficiency virus 1, HeLa, read-out: IC50 (nM) Range
Experimental: as §1, §2, §3, §4, §5, §6, §7

[8] = system: isogenic HIV-1 RT mutant virus G190A; assay type: cell-based; settings: Human immunodeficiency virus 1, HeLa, read-out: IC50 (nM) Range
Experimental: as §1, §2, §3, §4, §5, §6, §7

[9] = system: isogenic HIV-1 RT mutant virus P236L; assay type: cell-based; settings: Human immunodeficiency virus 1, HeLa, read-out: IC50 (nM) Range
Experimental: as §1, §2, §3, §4, §5, §6, §7

[10] = system: isogenic HIV-1 RT mutant virus P225H; assay type: cell-based; settings: Human immunodeficiency virus 1, HeLa, read-out: IC50 (nM) Range
Experimental: as §1, §2, §3, §4, §5, §6, §7

[11] = system: isogenic HIV-1 RT mutant virus Y181C; assay type: cell-based; settings: Human immunodeficiency virus 1, HeLa, read-out: IC50 (nM) Range
Experimental: as §1, §2, §3, §4, §5, §6, §7

[12] = system: isogenic HIV-1 RT mutant virus K103N/P225H; assay type: cell-based; settings: Human immunodeficiency virus 1, HeLa, read-out: IC50 (nM) Range
Experimental: as §1, §2, §3, §4, §5, §6, §7

[13] = system: isogenic HIV-1 RT mutant virus V106I; assay type: cell-based; settings: Human immunodeficiency virus 1, HeLa, read-out: IC50 (nM) Range
Experimental: as §1, §2, §3, §4, §5, §6, §7

[14] = system: isogenic HIV-1 RT mutant virus L100I; assay type: cell-based; settings: Human immunodeficiency virus 1, HeLa, read-out: IC50 (nM) Range
Experimental: as §1, §2, §3, §4, §5, §6, §7

[15] = system: isogenic HIV-1 RT mutant virus V106I/Y181C; assay type: cell-based; settings: Human immunodeficiency virus 1, HeLa, read-out: IC50 (nM) Range
Experimental: as §1, §2, §3, §4, §5, §6, §7

WTRVA = assay type: cell-based, HIV-1; settings: Human immunodeficiency virus 1, Virus Type WTRVA, read-out: IC50 (nM) Range
Experimental: as §1, §2, §3, §4, §5, §6, §7

| Structure (SMILES) | IC50 [1] [nM] | IC50 [2] [nM] | IC50 [3] [nM] | IC50 [4] [nM] | IC50 [5] [nM] | IC50 [6] [nM] | IC50 [7] [nM] | IC50 [8] [nM] | IC50 [9] [nM] | IC50 [10] [nM] | IC50 [11] [nM] | IC50 [12] [nM] | IC50 [13] [nM] | IC50 [14] [nM] | IC50 [15] [nM] | IC50 (WTRVA) [nM] |
| --- | --- | --- | --- | --- | --- | --- | --- | --- | --- | --- | --- | --- | --- | --- | --- | --- |
| CCc1cc(C#N)cc(C(=O)c2cc(Cl)ccc2OCC(=O)Nc2ccc(S(N)(=O)=O)cc2C)c1 [Compound 498] | < 10 | < 10 | < 10 | < 10 | < 10 | < 10 | < 10 | < 10 | < 10 | < 10 | < 10 | < 10 | < 10 | < 10 | 11 to 100 | < 10 |
| Cc1cc(C#N)cc(C(=O)c2cc(Cl)ccc2OCC(=O)Nc2ccc(OCCCN3CC=CC3)cc2C)c1 [Compound 593] | < 10 | < 10 | < 10 | < 10 | < 10 | < 10 | < 10 | < 10 | < 10 | < 10 | < 10 | < 10 | < 10 | < 10 | 11 to 100 | < 10 |
| Cc1cc(S(N)(=O)=O)ccc1NC(=O)COc1ccc(Cl)cc1C(=O)c1cc(Cl)cc(C#N)c1 [Compound 475] | < 10 | < 10 | < 10 | < 10 | < 10 | < 10 | < 10 | < 10 | < 10 | < 10 | < 10 | < 10 | < 10 | < 10 | 11 to 100 | < 10 |
